Assay results as given in US20120108532A1, “PHARMACEUTICAL COMPOSITION FOR NEUROPROTECTIVE TREATMENT IN PATIENTS WITH ICTUS COMPRISING CITICOLINE AND URIC ACID” (HOSPITAL CLINIC PROVINCIAL DE BARCELONA, priority 2009, published 2012).

Legend:
focal cerebral ischemia = conditions: adult rat; UA given 2 hours before occlusion of the middle cerebral artery or 1 hour after reperfusion; cited from earlier work
[1] = test system: mixed cultures of neurons/glia; experiment: Lactate dehydrogenase (LDH) release assay of cell death after oxygen and glucose deprivation (OGD); assay type: cell-based, rat; conditions: 100 μM, added 60 min before, during and after 90 min OGD; read 3 hours 30 minutes after OGD; FIG. 1
Method: Mixed cultures of neurons/glia of 18-day rat fetal embryos Sprague-Dawley were prepared as described in Petegnief, V. Saura, J. De Gregorio-Rocasolano, N., and Paul, S. M. (2001) Neuroscience 104, 223-234. The cells were suspended in minimum essential medium (MEM) supplemented by 10% fetal bovine serum and 100 μg/ml gentamicin and placed on 24-well plates previously covered with poly-L-lysine (5 μg/ml) (Nunc, Roskilde, Denmark) with a density of 0.6×10^6 cells/well and cultured at 37° C. in an incubator with 95% atmospheric air/5% CO2. The in vitro medium was partially changed on days 4, 7 and 10 (DIV) with MEM supplemented with B27. The cultures were used in 11/13 DIV. 11.9 mM uric acid was prepared in 1.35 mM lithium carbonate and 5% mannitol. […]
For the lactate dehydrogenase activity assay, cell death was estimated 3 hours 30 minutes after OGD and next lactate dehydrogenase (LDH) activity was measured released in the medium according to a modification of the method of (Wroblewski and LaDue, […]). The reduction of absorbance in 0.75 NADH to 340 nm was followed by a phosphate buffer ([…], pH 7.4) in presence of 4.2 mM pyruvic acid as substrate.

Q: With `O=c1[nH]c(=O)c2[nH]c(=O)[nH]c2[nH]1` [uric acid] as the compound, how does the resulting cerebral infarction (focal cerebral ischemia) read?
A: significantly reduces the resulting cerebral infarction

Q: What about the “cell viability in ischemic conditions (LDH activity released in the medium)” value [1] of the same compound?
A: did not improve the cell viability
